Counter-ions that a name gives are not always drawn. Like-named read-outs stand apart in the source and are kept apart here.
Legend:
[1] = tested on: human tumor xenograft models; conditions: cited from earlier work
PI3 Kinase α = PI3 Kinase α (Homo sapiens, UniProt P42336); test: Fluorescence polarization assay for PI3K (PI3 Kinase α); format: biochemical; conditions: diC8-PI(4,5)P2 substrate, 25 μM ATP, one hour at 25° C.
Procedure: Nunc 384 well black polypropylene fluorescent plates were used for PI3K assays. Reactions were quenched by the addition of EDTA to a final concentration of 10 μM. Final reaction volumes were 10 ml. […] Reactions were allowed to proceed for one hour at 25° C. After I hour, GST-tagged GRP1 (general receptor for phosphoinositides) PH domain fusion protein was added to a final concentration of 100 nM, and BODIPY-TMRI(1,3,4,5)P4 (Echelon) was also added to a final concentration of 5 nM. Final sample volumes were 25 μl with a final DMSO concentration of 0.8%. Assay Plates were read on PerkinElmer Envision plate readers with appropriate filters for Tamra [BODIPY-TMRI(1,3,4,5)P4]. Data obtained were used to calculate enzymatic activity and enzyme inhibition by inhibitor compounds.

PI3 Kinase γ = PI3 Kinase γ (Homo sapiens, UniProt P48736); test: Fluorescence polarization assay for PI3K (PI3 Kinase γ); format: biochemical; conditions: diC8-PI(4,5)P2 substrate, 25 μM ATP, one hour at 25° C.
mTOR enzymes = mTOR enzymes (Homo sapiens, UniProt P42345); conditions: read-out: IC50 mTOR enzymes; reported in the literature; cited from earlier work
PI3K = conditions: reported, Raynaud et al 2007; read-out: IC50 PI3K (second named); cited from earlier work

Sequence of PI3 Kinase α (P42336 whole entry): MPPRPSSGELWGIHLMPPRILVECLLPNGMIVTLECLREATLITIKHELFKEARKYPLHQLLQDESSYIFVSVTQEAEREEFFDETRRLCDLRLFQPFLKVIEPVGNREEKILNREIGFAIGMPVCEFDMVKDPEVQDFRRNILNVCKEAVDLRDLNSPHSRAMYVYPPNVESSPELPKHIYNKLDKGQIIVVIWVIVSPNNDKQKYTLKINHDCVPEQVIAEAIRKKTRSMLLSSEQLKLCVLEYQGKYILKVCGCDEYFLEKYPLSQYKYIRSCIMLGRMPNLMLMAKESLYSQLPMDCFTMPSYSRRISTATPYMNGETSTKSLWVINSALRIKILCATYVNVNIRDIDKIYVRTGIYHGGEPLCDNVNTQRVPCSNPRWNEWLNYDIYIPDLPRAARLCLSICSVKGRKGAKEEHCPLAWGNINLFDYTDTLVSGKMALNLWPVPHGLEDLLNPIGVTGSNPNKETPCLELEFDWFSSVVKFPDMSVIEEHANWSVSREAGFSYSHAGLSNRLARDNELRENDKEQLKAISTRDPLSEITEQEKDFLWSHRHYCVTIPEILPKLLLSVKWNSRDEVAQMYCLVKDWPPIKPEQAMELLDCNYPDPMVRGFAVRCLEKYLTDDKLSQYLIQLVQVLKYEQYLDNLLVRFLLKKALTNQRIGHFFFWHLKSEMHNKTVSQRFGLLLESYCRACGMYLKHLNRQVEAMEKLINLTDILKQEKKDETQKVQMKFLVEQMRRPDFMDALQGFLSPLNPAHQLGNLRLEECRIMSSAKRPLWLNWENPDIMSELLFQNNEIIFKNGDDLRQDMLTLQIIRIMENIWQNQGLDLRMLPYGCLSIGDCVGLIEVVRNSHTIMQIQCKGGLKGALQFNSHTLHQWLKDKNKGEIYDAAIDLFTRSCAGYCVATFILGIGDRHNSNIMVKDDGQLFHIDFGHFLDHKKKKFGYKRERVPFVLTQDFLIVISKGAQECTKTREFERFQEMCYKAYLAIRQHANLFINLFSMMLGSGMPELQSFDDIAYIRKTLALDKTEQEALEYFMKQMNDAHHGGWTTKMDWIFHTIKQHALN
Sequence of PI3 Kinase α (P27986 whole entry partner): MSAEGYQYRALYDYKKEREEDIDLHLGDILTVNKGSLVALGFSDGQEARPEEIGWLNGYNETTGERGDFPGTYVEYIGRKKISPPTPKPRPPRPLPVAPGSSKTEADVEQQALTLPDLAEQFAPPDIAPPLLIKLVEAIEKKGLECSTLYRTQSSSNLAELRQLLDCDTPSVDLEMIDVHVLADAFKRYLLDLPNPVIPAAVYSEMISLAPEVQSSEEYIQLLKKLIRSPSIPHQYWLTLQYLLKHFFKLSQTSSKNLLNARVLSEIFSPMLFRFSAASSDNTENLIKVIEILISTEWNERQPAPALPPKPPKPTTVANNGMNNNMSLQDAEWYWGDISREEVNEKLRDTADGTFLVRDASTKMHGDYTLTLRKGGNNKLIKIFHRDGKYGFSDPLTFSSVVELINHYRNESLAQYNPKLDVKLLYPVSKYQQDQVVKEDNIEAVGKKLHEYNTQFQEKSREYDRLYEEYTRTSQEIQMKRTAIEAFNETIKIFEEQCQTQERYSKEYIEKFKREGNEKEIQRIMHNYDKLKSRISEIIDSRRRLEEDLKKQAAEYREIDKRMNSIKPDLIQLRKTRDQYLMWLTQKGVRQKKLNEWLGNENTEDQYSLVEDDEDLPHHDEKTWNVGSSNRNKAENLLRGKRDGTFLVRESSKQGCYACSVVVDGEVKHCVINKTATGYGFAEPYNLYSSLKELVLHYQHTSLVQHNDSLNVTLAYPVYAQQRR
Sequence of PI3 Kinase γ (P48736 whole entry): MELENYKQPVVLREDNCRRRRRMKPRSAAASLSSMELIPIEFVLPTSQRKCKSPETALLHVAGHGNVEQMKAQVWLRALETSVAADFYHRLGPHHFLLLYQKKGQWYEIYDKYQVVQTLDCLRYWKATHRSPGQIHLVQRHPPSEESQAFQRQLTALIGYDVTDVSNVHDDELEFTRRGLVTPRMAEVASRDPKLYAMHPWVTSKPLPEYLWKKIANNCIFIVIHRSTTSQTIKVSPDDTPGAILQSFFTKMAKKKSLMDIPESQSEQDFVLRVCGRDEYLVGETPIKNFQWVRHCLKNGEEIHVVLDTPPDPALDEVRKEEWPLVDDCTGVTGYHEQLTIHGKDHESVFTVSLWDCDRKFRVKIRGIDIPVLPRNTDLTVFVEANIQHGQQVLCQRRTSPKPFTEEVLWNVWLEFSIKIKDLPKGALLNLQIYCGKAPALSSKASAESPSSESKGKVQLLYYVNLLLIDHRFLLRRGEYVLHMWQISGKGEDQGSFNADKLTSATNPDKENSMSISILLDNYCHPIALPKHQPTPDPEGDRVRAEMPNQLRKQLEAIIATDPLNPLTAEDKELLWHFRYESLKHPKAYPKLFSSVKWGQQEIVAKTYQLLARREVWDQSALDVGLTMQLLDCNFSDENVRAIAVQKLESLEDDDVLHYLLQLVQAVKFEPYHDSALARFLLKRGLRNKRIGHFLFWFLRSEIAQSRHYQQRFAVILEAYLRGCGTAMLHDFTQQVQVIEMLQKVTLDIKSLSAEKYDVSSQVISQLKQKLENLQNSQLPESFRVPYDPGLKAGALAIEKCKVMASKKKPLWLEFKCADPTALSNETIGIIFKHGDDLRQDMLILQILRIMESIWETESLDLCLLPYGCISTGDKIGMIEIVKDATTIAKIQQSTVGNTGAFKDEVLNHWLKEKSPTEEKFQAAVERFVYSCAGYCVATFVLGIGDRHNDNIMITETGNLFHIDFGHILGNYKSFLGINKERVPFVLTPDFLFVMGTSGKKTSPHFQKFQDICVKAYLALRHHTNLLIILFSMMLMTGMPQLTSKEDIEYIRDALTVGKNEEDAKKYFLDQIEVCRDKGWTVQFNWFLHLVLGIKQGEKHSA

IC50 (PI3 Kinase α) [nM]	IC50 (PI3 Kinase γ) [nM]	Compound	also measured
4.5	25.5	Cn1nnc2c(N3CCOCC3)nc(-c3ccc(NC(=O)Nc4ccsc4)cc3)nc21 [Example 201, 1-[4-(3-methyl-7-morpholin-4-yl-3H-[1,2,3]triazolo[4,5-d]pyrimidin-5-yl)phenyl]-3-(3-thienyl)urea]	melting point: 272 °C
67.5	152	COC(Cn1nnc2c(N3CCOCC3)nc(-c3ccc(NC(=O)Nc4ccc(F)cc4)cc3)nc21)OC [Example 180, 1-{4-[3-(2,2-dimethoxyethyl)-7-morpholin-4-yl-3H-[1,2,3]triazolo[4,5-d]pyrimidin-5-yl]phenyl}-3-(4-fluorophenyl)urea]	–
60	2300	O=C(NCCc1cnc[nH]1)c1ccc(Cn2nnc3c(N4CCOCC4)nc(-c4cccc(O)c4)nc32)cc1 [Example 231, 4-{[5-(3-hydroxyphenyl)-7-morpholin-4-yl-3H-[1,2,3]triazolo[4,5-d]pyrimidin-3-yl]methyl}-N-[2-(1H-imidazol-5-yl)ethyl]benzamide]	–

The remaining lines, values behind:

Compound	IC50 (PI3 Kinase α) [nM]	IC50 (PI3 Kinase γ) [nM]	also measured
Cn1c(=O)n(-c2ccc(C(C)(C)C#N)cc2)c2c3cc(-c4cnc5ccccc5c4)ccc3ncc21 [NVP-BEZ-235, 2-methyl-2-(4-(3-methyl-2-oxo-8-(quinolin-3-yl)-2,3-dihydro-1H-imidazo[4,5-c]quinolin-1-yl)phenyl)propanenitrile]	–	–	activity in human tumor xenograft models ([1]; prostrate (PC-3) and glioblastoma (U-87)): demonstrated activity
O=C(Nc1ccncc1)Nc1ccc(-c2nc(N3CCOCC3)c3nnn(C4CCOCC4)c3n2)cc1 (as salt: HCl) [Example 198, 1-{4-[7-morpholin-4-yl-3-(tetrahydro-2H-pyran-4-yl)-3H-[1,2,3]triazolo[4,5-d]pyrimidin-5-yl]phenyl}-3-pyridin-4-ylurea]	–	–	melting point: 332 °C
FC(F)c1nc2ccccc2n1-c1nc(N2CCOCC2)nc(N2CCOCC2)n1 [ZSTK474, 2-(2-difluoromethylbenzoimidazol-1-yl)-4,6-dimorpholino-1,3,5-triazine]	–	–	tumor growth in mouse human xenograft cancer models ([1]; chronic oral administration, 400 mg/kg, A549, PC-3, WiDr): completely inhibited growth; IC50 (mTOR enzymes): > 10000 nM
CO[C@H]1C[C@@H]2CC[C@@H](C)[C@@](O)(O2)C(=O)C(=O)N2CCCC[C@H]2C(=O)O[C@H]([C@H](C)C[C@@H]2CC[C@@H](OC(=O)C(C)(CO)CO)[C@H](OC)C2)CC(=O)[C@H](C)/C=C(\C)[C@@H](O)[C@@H](OC)C(=O)[C@H](C)C[C@H](C)/C=C/C=C/C=C/1C [Torisel]	–	–	activity in xenograft mouse model ([1]; NOS/SCID xenograft mouse model of acute lymphoblastic leukemia): active
Oc1cccc(-c2nc(N3CCOCC3)c3oc4ncccc4c3n2)c1 [PI103, 3-(4-(4-morpholinyl)pyrido[3′,2′:4,5]furo[3,2-d]pyrimidin-2-yl)phenol]	–	–	activity in human tumor xenograft models ([1]; I.P. dosing in mice, U87MG, PC3, MDA-MB-468, MDA-MB-435, HCT 116, SKOV3, IGROV-1): demonstrated activity; IC50 (PI3K): […]
Oc1cncc(-c2nc(N3CCOCC3)c3nnn(C4CCN(Cc5ccc(Br)nc5)CC4)c3n2)c1 [Example 15, 5-(3-{1-[(6-bromopyridin-3-yl)methyl]piperidin-4-yl}-7-morpholin-4-yl-3H-[1,2,3]triazolo[4,5-d]pyrimidin-5-yl)pyridin-3-ol]	16	106	–
CCn1nnc2c(N3CCOCC3)nc(-c3ccc(NC(=O)Nc4ccc(C(=O)N(C)C)cc4)cc3)nc21 [Example 61, 4-({[4-(3-ethyl-7-morpholin-4-yl-3H-[1,2,3]triazolo[4,5-d]pyrimidin-5-yl)phenyl]carbamoyl}amino)-N,N-dimethylbenzamide]	1.6	12	–
Nc1ccc(-c2nc(N3CCOCC3)c3nnn(C4CC4)c3n2)cc1 [Example 77, 4-(3-cyclopropyl-7-morpholino-3H-[1,2,3]triazolo[4,5-d]pyrimidin-5-yl)aniline]	1840	8000	–

From patent US20090181963A1, “3H-[1,2,3]TRIAZOLO[4,5-D]PYRIMIDINE COMPOUNDS, THEIR USE AS mTOR KINASE AND PI3 KINASE INHIBITORS, AND THEIR [sequence]” (Wyeth, priority 2008, published 2009)
